What is called EC50 is the concentration at which the effect is half-maximal. Broadly, the IC50 is the concentration at which inhibition is half-maximal.

Assay [1] has as its system SW620 human colon cancer cells. Description: SW620 Cell Viability Assay. It is filed as cell-based. To be noted: CellTiter-Glo, 4 days incubation, read-out: Cellular EC50 (μM) SW620. Put shortly: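 SW620 human colon cancer cells, some attached 24 h then serum-starved 48 h before dosing; compounds prepared in serum-supplemented medium. Cells incubated with compound 4 days at 37 °C, 5% CO2, and viability measured by CellTiter-Glo luminescence.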
A general note: Cellular ATP, detected with luciferase, serves as a proxy for viable cell number.

Another assay deals with T1, Human DYRK1A (Homo sapiens, UniProt Q13627).
T1 construct: purchased Invitrogen PV3997
Kind of assay: DYRK1A Kinase TR-FRET (IMAP-Tb) Assay. It is filed as biochemical. To be noted: TR-FRET (IMAP-Tb); ATP 70 μM; 37° C. 60 minutes; read-out: Enzyme IC50 (μM) DYRK1A. The method in brief:
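Recombinant human DYRK1A phosphorylated fluorescent substrate peptide (1.0 μM) with ATP in 10 mM HEPES pH 7.0, 50 mM NaCl, 5 mM MgCl2, 1 mM DTT, 1 mM NaVO4, 0.02% BSA for 60 min at 37 °C. Phosphopeptide detected by IMAP terbium TR-FRET; IC50 reported.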

The target in another assay is T2, Human DYRK1B (Homo sapiens, UniProt Q9Y463).
T2 construct: purchased Invitrogen PR8350B (former PV4649)
Description: DYRK1B Kinase TR-FRET (IMAP-Tb) Assay. The settings on record: TR-FRET (IMAP-Tb); ATP 70 μM; 37° C. 60 minutes; read-out: Enzyme IC50 (μM) DYRK1B. The format is biochemical. A general note: Time-resolved FRET reads energy transfer from a long-lived donor to a nearby acceptor.

Where a name gives a salt, the structure may show the parent alone. Read-outs that look alike come from different tables or passages of the source.

T2 sequence (Q9Y463 whole entry): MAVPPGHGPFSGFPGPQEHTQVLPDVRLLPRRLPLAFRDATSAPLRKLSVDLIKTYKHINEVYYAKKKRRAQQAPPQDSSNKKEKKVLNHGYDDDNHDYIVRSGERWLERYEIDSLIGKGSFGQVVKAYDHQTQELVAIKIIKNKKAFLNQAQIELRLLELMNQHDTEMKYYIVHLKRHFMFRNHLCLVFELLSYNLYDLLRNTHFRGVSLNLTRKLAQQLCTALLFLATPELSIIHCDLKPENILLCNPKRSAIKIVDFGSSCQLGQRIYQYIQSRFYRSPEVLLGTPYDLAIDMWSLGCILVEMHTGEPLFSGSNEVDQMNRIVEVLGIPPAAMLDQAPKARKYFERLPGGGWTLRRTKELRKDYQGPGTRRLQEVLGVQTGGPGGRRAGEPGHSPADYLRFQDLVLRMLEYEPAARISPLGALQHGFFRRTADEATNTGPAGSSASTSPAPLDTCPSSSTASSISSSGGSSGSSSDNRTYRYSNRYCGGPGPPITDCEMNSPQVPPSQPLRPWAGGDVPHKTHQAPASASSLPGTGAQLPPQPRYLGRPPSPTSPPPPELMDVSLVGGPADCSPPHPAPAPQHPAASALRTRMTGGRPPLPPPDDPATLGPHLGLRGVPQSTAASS

As for `CN1CCC(CCNc2ncc3cc(C(=O)Nc4cc(C(=O)NCc5cccc(Cl)c5)ccc4Cl)c(=O)[nH]c3n2)CC1` [Example 104, N-(2-chloro-5-(3-chlorobenzylcarbamoyl)phenyl)-2-(2-(1-methylpiperidin-4-yl)ethylamino)-7-oxo-7,8-dihydropyrido[2,3-d]pyrimidine-6-carboxamide], the EC50 in assay [1] (Homo sapiens, SW-620, 96 h) was 0.0787 µM. Also, the IC50 came out at 0.0226 µM at Human DYRK1A and 0.0613 µM at Human DYRK1B.

Consider `NC1CCN(c2ncc3cc(C(=O)Nc4cc(C(=O)NC(CO)c5ccccc5)ccc4Cl)c(=O)[nH]c3n2)CC1` (stereo not drawn) [Example 147, 2-(4-Aminopiperidin-1-yl)-N-(2-chloro-5-(2-hydroxy-1-phenylethylcarbamoyl)phenyl)-7-oxo-7,8-dihydropyrido[2,3-d]pyrimidine-6-carboxamide hydrochloride], for which the EC50 in assay [1] (Homo sapiens, SW-620, 96 h) was determined as 1.44 µM. The IC50 amounted to 0.194 µM at Human DYRK1A and 0.483 µM at Human DYRK1B.

For the compound `CN1CCN(CCNc2ncc3cc(C(=O)Nc4cc(C(=O)NCc5cccc(Cl)c5)ccc4Cl)c(=O)[nH]c3n2)CC1` [Example 100, N-(2-chloro-5-(3-chlorobenzylcarbamoyl)phenyl)-2-(2-(4-methylpiperazin-1-yl)ethylamino)-7-oxo-7,8-dihydropyrido[2,3-d]pyrimidine-6-carboxamide hydrochloride], the 50% effective concentration (EC50) in assay [1] (hydrochloride) was found to be 0.068 µM. Also, the IC50 came out at 0.0381 µM at Human DYRK1A and 0.142 µM on Human DYRK1B.

`Cc1ncc2cc(C(=O)Nc3cc(C(=O)NC(CN)c4ccccc4)ccc3Cl)c(=O)[nH]c2n1` (stereo not drawn) [Example 114, N-(5-(2-Amino-1-phenylethylcarbamoyl)-2-chlorophenyl)-2-methyl-7-oxo-7,8-dihydropyrido[2,3-d]pyrimidine-6-carboxamide hydrochloride]: the EC50 in assay [1] (Homo sapiens, SW-620, 96 h) came out at 1.32 µM. Further, the IC50 worked out at 0.0373 µM at Human DYRK1A and 0.0146 µM on Human DYRK1B.

With `COC(=O)c1ccc(Cl)c(NC(=O)c2cc3cnc(N(CCO)CCO)nc3[nH]c2=O)c1` [Example 39, 3-({2-[Bis-(2-hydroxy-ethyl)-amino]-7-oxo-7,8-dihydro-pyrido[2,3-d]pyrimidine-6-carbonyl}-amino)-4-chloro-benzoic acid methyl ester], the EC50 in assay [1] (Homo sapiens, SW-620, 96 h) is 2.29 µM. For the same compound, the IC50 at Human DYRK1A turned out to be 0.0128 µM; on Human DYRK1B, 0.0248 µM.

Take `COC(=O)c1ccc(Cl)c(NC(=O)c2cc3cnc(N4CCN(C)CC4)nc3[nH]c2=O)c1` [Example 35, 4-Chloro-3-{[2-(4-methyl-piperazin-1-yl)-7-oxo-7,8-dihydro-pyrido[2,3-d]pyrimidine-6-carbonyl]amino}-benzoic acid methyl ester]: the EC50 in assay [1] (Homo sapiens, SW-620, 96 h) amounted to 7.05 µM. Moreover, the IC50 on Human DYRK1A was 0.0046 µM; at Human DYRK1B it was 0.031 µM.

In the case of `O=C(NCc1cccc(Cl)c1)c1ccc(Cl)c(NC(=O)c2cc3cnc(OCCN4CCOCC4)nc3[nH]c2=O)c1` [Example 81, 2-(2-Morpholin-4-yl-ethoxy)-7-oxo-7,8-dihydro-pyrido[2,3-d]pyrimidine-6-carboxylic acid [2-chloro-5-(3-chloro-benzylcarbamoyl)-phenyl]-amide], the EC50 in assay [1] (Homo sapiens, SW-620, 96 h) was 0.651 µM. The IC50 at Human DYRK1A stood at 0.0313 µM; at Human DYRK1B, 0.128 µM.

In the case of `CN1CCN(c2ncc3cc(C(=O)Nc4cc(C(=O)NCc5cccc(Cl)c5)ccc4Cl)c(=O)[nH]c3n2)CC1` [Example 75, 2-(4-Methyl-piperazin-1-yl)-7-oxo-7,8-dihydro-pyrido[2,3-d]pyrimidine-6-carboxylic acid [2-chloro-5-(3-chloro-benzylcarbamoyl)-phenyl]-amide], the EC50 in assay [1] (Homo sapiens, SW-620, 96 h) was found to be 0.563 µM. Also, the figures for the IC50 on Human DYRK1A and on Human DYRK1B were 0.0211 µM and 0.103 µM, respectively.

Turning to `O=C(NCc1cccc(Cl)c1)c1ccc(Cl)c(NC(=O)c2cc3cnc(NCCO)nc3[nH]c2=O)c1` [Example 103, N-(2-chloro-5-(3-chlorobenzylcarbamoyl)phenyl)-2-(2-hydroxyethylamino)-7-oxo-7,8-dihydropyrido[2,3-d]pyrimidine-6-carboxamide], in assay [1] (Homo sapiens, SW-620, 96 h), the EC50 was above 10 µM. The IC50 on Human DYRK1A came to 0.00974 µM; at Human DYRK1B, 0.0291 µM.

As to `O=C(NCc1cccc(Cl)c1)c1ccc(Cl)c(NC(=O)c2cc3cnc(N4C[C@H]5CC[C@@H](C4)O5)nc3[nH]c2=O)c1` [Example 179, 2-(1R,5S)-8-Oxa-3-aza-bicyclo [3.2.1]oct-3-yl-7-oxo-7,8-dihydro-pyrido[2,3-d]pyrimidine-6-carboxylic acid [2-chloro-5-(3-chloro-benzylcarbamoyl)-phenyl]amide], the EC50 in assay [1] (Homo sapiens, SW-620, 96 h) amounted to 0.367 µM. For the same compound, the IC50 on Human DYRK1A came out at 0.0369 µM; at Human DYRK1B, 0.131 µM.

Regarding `CSc1ncc2cc(C(=O)Nc3cc(C(=O)NCc4cccc(Cl)c4)ccc3Cl)c(=O)[nH]c2n1` [Example 74, 2-Methylsulfanyl-7-oxo-7,8-dihydro-pyrido[2,3-d]pyrimidine-6-carboxylic acid [2-chloro-5-(3-chloro-benzylcarbamoyl)-phenyl]-amide], the EC50 in assay [1] (Homo sapiens, SW-620, 96 h) was found to be 1.07 µM. Moreover, the IC50 at Human DYRK1A was found to be 0.0256 µM; at Human DYRK1B, 0.0553 µM.

As to `NC1CCN(c2ncc3cc(C(=O)Nc4cc(C(=O)NC(CCO)c5ccccc5)ccc4Cl)c(=O)[nH]c3n2)CC1` (stereo not drawn) [Example 148, 2-(4-Aminopiperidin-1-yl)-N-(2-chloro-5-(3-hydroxy-1-phenylpropylcarbamoyl)phenyl)-7-oxo-7,8-dihydropyrido[2,3-d]pyrimidine-6-carboxamide hydrochloride], in assay [1] (Homo sapiens, SW-620, 96 h), the EC50 came out at 0.069 µM. Further, the concentration for half-maximal inhibition (IC50) is 0.15 µM on Human DYRK1A and 0.321 µM at Human DYRK1B.

For the compound `COc1ncc2cc(C(=O)Nc3cc(C(=O)NC(CN)c4cccc(Cl)c4)ccc3Cl)c(=O)[nH]c2n1` (stereo not drawn) [Example 85, 2-Methoxy-7-oxo-7,8-dihydro-pyrido[2,3-d]pyrimidine-6-carboxylic acid {5-[2-amino-1-(3-chloro-phenyl)-ethylcarbamoyl]-2-chloro-phenyl}-amide], the EC50 in assay [1] (Homo sapiens, SW-620, 96 h) is 0.524 µM. Further, the IC50 at Human DYRK1A stood at 0.03 µM; at Human DYRK1B, 0.029 µM.

In the case of `NCC(NC(=O)c1ccc(Cl)c(NC(=O)c2cc3cnc(N4CCC(N)CC4)nc3[nH]c2=O)c1)c1ccccc1` (stereo not drawn) [Example 138, N-(5-(2-Amino-1-phenylethylcarbamoyl)-2-chlorophenyl)-2-(4-aminopiperidin-1-yl)-7-oxo-7,8-dihydropyrido[2,3-d]pyrimidine-6-carboxamide hydrochloride], the EC50 in assay [1] (Homo sapiens, SW-620, 96 h) came to 2.9 µM. In addition, the figures for the half-inhibitory concentration (IC50) on Human DYRK1A and on Human DYRK1B were 0.0184 µM and 0.0319 µM, respectively.

As for `CSc1ncc2cc(C(=O)Nc3cc(C(=O)NC(CO)c4ccccc4)ccc3Cl)c(=O)[nH]c2n1` (stereo not drawn) [Example 140, N-(2-Chloro-5-(2-hydroxy-1-phenylethylcarbamoyl)phenyl)-2-(methylthio)-7-oxo-7,8-dihydropyrido[2,3-d]pyrimidine-6-carboxamide], in assay [1] (Homo sapiens, SW-620, 96 h), the EC50 stood at 3.07 µM. In addition, the IC50 on Human DYRK1A turned out to be 0.073 µM; at Human DYRK1B, 0.17 µM.

For `CSc1ncc2cc(C(=O)Nc3cc(C(=O)NC(CCO)c4ccccc4)ccc3Cl)c(=O)[nH]c2n1` (stereo not drawn) [Example 141, N-(2-Chloro-5-(3-hydroxy-1-phenylpropylcarbamoyl)phenyl)-2-(methylthio)-7-oxo-7,8-dihydropyrido[2,3-d]pyrimidine-6-carboxamide], the EC50 in assay [1] (Homo sapiens, SW-620, 96 h) came to 2.39 µM. Also, the IC50 was found to be 0.101 µM on Human DYRK1A and 0.12 µM on Human DYRK1B.

Take `CN1CCN(CCCNc2ncc3cc(C(=O)Nc4cc(C(=O)NCc5cccc(Cl)c5)ccc4Cl)c(=O)[nH]c3n2)CC1` [Example 101, 2-[3-(4-Methyl-piperazin-1-yl)-propylamino]-7-oxo-7,8-dihydro-pyrido[2,3-d]pyrimidine-6-carboxylic acid [2-chloro-5-(3-chloro-benzylcarbamoyl)-phenyl]amide]: the EC50 in assay [1] (Homo sapiens, SW-620, 96 h) was determined as 0.0663 µM. Further, the IC50 at Human DYRK1A turned out to be 0.0263 µM; at Human DYRK1B it was 0.0221 µM.

Turning to `O=C(NC(CO)c1ccccc1)c1ccc(Cl)c(NC(=O)c2cc3cnc(N4C[C@H]5CC[C@@H](C4)O5)nc3[nH]c2=O)c1` (stereo partly drawn) [Example 181, 2-(1R,5S)-8-Oxa-3-aza-bicyclo [3.2.1]oct-3-yl-7-oxo-7,8-dihydro-pyrido[2,3-d]pyrimidine-6-carboxylic acid [2-chloro-5-(2-hydroxy-1-phenyl-ethylcarbamoyl)-phenyl]amide], in assay [1] (Homo sapiens, SW-620, 96 h), the EC50 stood at 1.88 µM. Also, the IC50 at Human DYRK1A is 0.063 µM; on Human DYRK1B, 0.148 µM.

With `COc1ncc2cc(C(=O)Nc3cc(C(=O)N[C@@H](CN)c4cccc(Cl)c4)ccc3Cl)c(=O)[nH]c2n1` [Example 134, 2-Methoxy-7-oxo-7,8-dihydro-pyrido[2,3-d]pyrimidine-6-carboxylic acid {5-[(R)-2-amino-1-(3-chloro-phenyl)-ethylcarbamoyl]-2-chloro-phenyl}-amide], in assay [1] (Homo sapiens, SW-620, 96 h), the EC50 turned out to be 7.57 µM. Further, the half-inhibitory concentration (IC50) on Human DYRK1A was 0.481 µM; on Human DYRK1B it was 1.98 µM.

Consider `COc1ncc2cc(C(=O)Nc3cc(C(=O)NCCC(N)=O)ccc3Cl)c(=O)[nH]c2n1` [Example 167, N-(5-(3-Amino-3-oxopropylcarbamoyl)-2-chlorophenyl)-2-methoxy-7-oxo-7,8-dihydropyrido[2,3-d]pyrimidine-6-carboxamide], for which, in assay [1] (Homo sapiens, SW-620, 96 h), the EC50 was above 10 µM. Moreover, the values for the IC50 at Human DYRK1A and on Human DYRK1B were 0.338 µM and 0.769 µM, respectively.
